According to patent US20070004634A1 (Novo Nordisk A/S, priority 1998, published 2007):
No end group written: not given here.

Molecular target: IR (Homo sapiens, UniProt P06213)
Test: IR-Kd
Design: replacing the transmembrane domain and the intracellular domain of IR with constant domains from immunoglobulin Fc or λ subunits; made in house; host or cells: human embryonic kidney 293 cells (Bass et al.)
Text: Table printed on a drawing sheet, FIG. 5B
The patent's description of the figure: FIG. 5A: Summary of specific representative amino acid sequences from Formulas 1, 4, 6, and 10 (SEQ ID NOS:1155-1180).
FIG. 5B: Summary of specific representative amino acid sequences from Formulas 1, 4, 6, and 10 (SEQ ID NOS:1181-1220).
First copying reader's note: The scan is skewed, so values in the right-hand columns sit slightly higher than their clone names, and their rows were assigned by following the ruled lines.
Where the first naming reader finds the target: head: IR-Kd

Sequence of IR (P06213 28-758 limits assumed): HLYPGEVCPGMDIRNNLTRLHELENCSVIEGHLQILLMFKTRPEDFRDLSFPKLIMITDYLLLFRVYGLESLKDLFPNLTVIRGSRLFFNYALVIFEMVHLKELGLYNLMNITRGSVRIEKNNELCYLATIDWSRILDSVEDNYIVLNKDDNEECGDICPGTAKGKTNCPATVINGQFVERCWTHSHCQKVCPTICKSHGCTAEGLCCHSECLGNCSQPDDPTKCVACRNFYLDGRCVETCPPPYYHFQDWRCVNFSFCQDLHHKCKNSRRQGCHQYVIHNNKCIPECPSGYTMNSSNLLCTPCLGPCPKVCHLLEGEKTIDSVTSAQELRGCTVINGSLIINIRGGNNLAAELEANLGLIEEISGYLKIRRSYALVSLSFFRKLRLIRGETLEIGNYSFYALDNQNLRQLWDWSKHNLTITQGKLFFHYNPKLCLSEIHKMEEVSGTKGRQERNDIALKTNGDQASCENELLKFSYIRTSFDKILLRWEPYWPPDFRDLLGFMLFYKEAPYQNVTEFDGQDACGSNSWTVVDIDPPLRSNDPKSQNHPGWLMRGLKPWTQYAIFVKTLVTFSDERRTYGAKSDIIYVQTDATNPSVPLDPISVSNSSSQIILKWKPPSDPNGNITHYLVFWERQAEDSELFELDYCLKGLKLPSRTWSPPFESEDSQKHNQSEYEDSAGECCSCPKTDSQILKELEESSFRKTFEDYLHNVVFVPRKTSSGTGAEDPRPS
Sequence of IR (P06213 763-1382 limits assumed): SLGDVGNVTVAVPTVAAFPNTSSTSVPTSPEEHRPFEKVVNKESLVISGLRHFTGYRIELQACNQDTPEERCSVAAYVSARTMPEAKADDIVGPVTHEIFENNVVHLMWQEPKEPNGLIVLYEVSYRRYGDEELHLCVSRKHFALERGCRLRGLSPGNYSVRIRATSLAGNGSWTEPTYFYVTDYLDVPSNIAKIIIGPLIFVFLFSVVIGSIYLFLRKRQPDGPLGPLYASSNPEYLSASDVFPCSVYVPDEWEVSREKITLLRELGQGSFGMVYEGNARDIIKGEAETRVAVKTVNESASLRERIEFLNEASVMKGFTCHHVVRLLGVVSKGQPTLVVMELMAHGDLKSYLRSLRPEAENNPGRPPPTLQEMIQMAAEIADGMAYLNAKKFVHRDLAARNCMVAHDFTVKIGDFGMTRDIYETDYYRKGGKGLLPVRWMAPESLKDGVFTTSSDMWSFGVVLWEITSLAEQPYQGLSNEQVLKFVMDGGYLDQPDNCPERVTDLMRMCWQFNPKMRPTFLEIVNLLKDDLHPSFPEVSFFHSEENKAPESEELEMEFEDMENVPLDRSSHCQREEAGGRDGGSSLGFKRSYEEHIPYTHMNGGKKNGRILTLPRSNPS

Kd: > 20 µM
Sequence: AFYDWFAKK [Peptide S167]
